{
  "source": "patent US20250387360A1",
  "about": "“Methods and Compositions for Treatment of Addiction” (University of Connecticut, priority 2024, published 2025)",
  "tested_on": "male C57BL/6J mice",
  "assay": "4-day DID binge-like ethanol drinking with SCFA supplementation in drinking water",
  "assay_type": "in vivo, mouse",
  "settings": "for alcohol intake with SCFA supplement: 200 mM in drinking water 10 days, n=7 mice/group",
  "from_the_text": "Male C57BL/6J mice, (RRID: IMSR_JAX: 000664), aged 6-8 weeks, were obtained from Jackson Laboratories (ME, U.S.A) for the study. The mice were housed individually under a reversed 12-hours light/dark cycle, with lights off from […] to 7:00 am. A minimum acclimation period of 2 weeks was provided for all animals before they were randomly assigned to their respective groups. Mice had free access to food (Irradiated chow, Teklad global 18% protein rodent diet, 2918, Inotiv, WI, U.S.A) and deionized water to acclimate to the testing environment. Body weight and daily food and fluid intake were monitored and noted for all animal experiments.\nA standard 4-day drinking in the dark (DID) model was used to evaluate binge-like ethanol drinking patterns in mice. A 20% v/v ethanol solution was prepared by diluting 190-proof ethyl alcohol (Sigma, MO, U.S.A) with deionized water. During days 1-3, the water bottles were temporarily removed during the dark cycle of the mice, and the mice were provided with a tube containing the 20% v/v ethanol solution for a duration of two hours. On day four, the assessment of binge-like ethanol consumption took place, where the mice were given access to the 20% v/v ethanol solution for a period of four hours. The volume of fluid in the tube (read to the closest 100 μL) was measured immediately upon placement, and at two hours and four hours into the test. Following the completion of the four hours test, approximately 100 μL of blood was collected through cardiac puncture after CO2 euthanasia. Blood samples were subjected to centrifugation at 10,000 rpm for 10 minutes. The determination of blood ethanol concentrations (BEC) was performed using an Analox AMI Analyzer (Analox Instruments, MA, U.S.A). The quantity of ethanol consumed was then calculated as grams per kilogram of the mouse's body weight.\nAll SCFA were used in sodium salt form. Briefly, sodium acetate (Sigma, MO, U.S.A), sodium butyrate (Sigma, MO, U.S.A), sodium valerate (Ambeed, IL, U.S.A), and sodium chloride (NaCl; Sigma, Mo, U.S.A) were prepared at 200 mM concentration freshly in drinking water every two days. These concentrations were chosen based on earlier studies conducted in mice [Qi Y., et al., Sodium acetate regulates milk fat synthesis through the activation of GPR41/GPR43 signaling pathway. Frontiers in nutrition 2023, 10:1098715; Daien C I, et al., Gut-derived acetate promotes B10 cells with anti-inflammatory effects. JCI insight 2021, 6 (7)]. All SCFA and NaCl solutions were pH verified to control for acidity effects on daily consumption. SCFAs were given to mice via oral drinking for 10 consecutive days before any experiment, and this regimen was maintained throughout the entire experiment.\nGeneral statistical analysis (non-microbiome and non-RNAseq analysis) were conducted using GraphPad Prism 8 (GraphPad, CA, USA, RRID:SCR_002798). For the calculation of ethanol consumption during the DID procedure, it was expressed as grams of ethanol per kilogram of body weight (g/kg body weight), where 20% ethanol intake was determined as follows: multiplying the drinking volume by the ethanol percentage within that volume and the density of ethanol, and then dividing this by the mouse's body weight in kilograms. Normality of data distributions was tested by Shapiro-Wilk test and by Q-Q plots. Levene's test was used to test equality of variances across groups. Unpaired Student's t-tests were used to compare behavioral testing, GABA levels, and histone acetylation measurements between the sodium valerate and NaCl groups. To evaluate the impact of antibiotic cocktail administration on ethanol consumption and BEC between the groups receiving Abx and PBS at baseline and after treatment, a mixed ANOVA test was employed, given repeated measures from the same mouse from the two time points. Similarly, mixed ANOVA tests were applied to compare various SCFA levels before and after Abx administration.",
  "key": {"[1]": {"settings": "supplementation in drinking water, DID"}},
  "data": [
    {"compound": "CC(=O)[O-].[Na+]", "note": "[sodium acetate, reference compound]", "values": [
      {"measurement": "alcohol intake with SCFA supplement", "result": "no statistical changes"}
    ]},
    {"compound": "CCCCC(=O)O", "note": "[valeric acid]", "values": [
      {"measurement": "BEC (in words)", "setting": "[1]", "result": "significant reduction"},
      {"measurement": "ethanol consumption (in words)", "setting": "[1]", "result": "significant reduction"}
    ]},
    {"compound": "CCCC(=O)[O-].[Na+]", "note": "[sodium butyrate, reference compound]", "values": [
      {"measurement": "alcohol intake with SCFA supplement", "result": "no statistical changes"}
    ]}
  ]
}
